What was measured:
Format in all cases: cell-based
[1] = system: CD44; assay: CD44 immunolabelling of treated Episkin reconstructed epidermis; conditions: for CD44: Episkin, systemic treatment over 5 days, effect generally rated for the highest concentration used (10 μM)
Procedure: (§1) The reconstructed epidermises, received from the Episkin company at six days of reconstruction, were placed back into culture, when received, in 3.5 ml of differentiation medium (Episkin™ medium) under insert (in emersion) in an incubator for 48 hours (37° C., 5% CO2).
(§2) The epidermises were subsequently contacted with the test compounds systemically. The Episkin™ differentiation culture medium is replaced by a differentiation medium containing the test compounds with 0.1% of final DMSO vehicle. The epidermises were placed back into culture in the incubator for 48 hours. A new systemic treatment is carried out for a further 72 hours in culture in the incubator.
For the treatment on Episkin™, each test compound was prepared at the time of use by being weighed out and dissolved at 10 mM in DMSO, then used to treat 3 samples of reconstructed epidermis. Furthermore, each compound under test was employed at a final 1 and […] in the culture medium (0.1% final DMSO). The positive controls used were vitamin D3, retinol and calcipotriol (a vitamin D3 analogue).
(§3) The epidermises were withdrawn (3 epidermises per treatment) for histological analysis and protein extracts (a single reconstructed epidermis is used for the histological study and the protein extract).
The samples of epidermis were enclosed in OCT for freezing in liquid nitrogen and then stored at −80° C. The resulting blocks were cut to a thickness of 7 μm using a cryostat, and the slices were dried and stored at −20° C. while awaiting immunolabelling.
The labels selected for the immunolabelling are as follows: • Ki67 to provide information on any change in cell proliferation in the basal layer, and • CD44 to provide information on any change in the metabolism of the living layers and in the proliferation/differentiation balance.

[2] = system: Episkin™ reconstructed epidermis; assay: HES morphological observation of treated Episkin reconstructed epidermis; conditions: systemic treatment over 5 days
Procedure: as §1, §2
(§4) For the treatment on Episkin™, each test compound was prepared at the time of use by being weighed out and dissolved at 10 mM in DMSO, then used to treat 3 samples of reconstructed epidermis. […] The positive controls used were vitamin D3, retinol and calcipotriol (a vitamin D3 analogue).
as §3
Morphological control of the reconstructed epidermises treated was carried out using HES (Hematoxylin—Eosin—Saffron) staining in accordance with a standard protocol on the histological sections of the samples enclosed in paraffin (toluene bath: thrice 15 minutes; 100° alcohol baths; twice one minute; 95° alcohol baths: one minute; rinsing in water baths; hematoxylin bath: once 2 minutes; rinsing in water baths; brief immersion in a hydrochloric acid bath; rinsing with water; eosin bath: once one minute; rinsing with water; brief immersion in a 100° alcohol bath; saffron bath (5 minutes); brief immersion in a 100° alcohol bath; toluene bath: thrice 2 minutes).

[3] = system: Ki67; assay: Ki67 immunolabelling of treated Episkin reconstructed epidermis
Procedure: as §1, §2, §4, §3
The samples of epidermis were enclosed in OCT for freezing in liquid nitrogen and then stored at −80° C. […]

[4] = effect generally rated for the highest concentration used (10 μM)

Structure (SMILES) | CD44 [1] | HES [2, 4] | CD44 immunolabelling ([1]; Episkin samples treated, FIG. 3) | Ki67 labelling ([3]; Episkin samples treated, FIG. 2) | Ki67 ([3]; Episkin, systemic treatment over 5 days, 100 μM) | HES ([2]; 100 μM)
CCOC(=O)C1=C(C)Nc2c(c(=O)n(C)c(=O)n2C)C1c1cccc(Oc2ccccc2)c1 (stereo not drawn) [Compound (2)] | 0 | 0 | – | – | – | –
CCOC(=O)C1=C(C)Nc2c(c(=O)n(C)c(=O)n2C)C1CC(C)C (stereo not drawn) [Compound (4)] | ++ (*) | 0 | increase in CD44 | strong increase in Ki67 labelling | – | –
CC1=C(/C=C/C(C)=C/C=C/C(C)=C/CO)C(C)(C)CCC1 [Retinol, retinol, reference compound] | – | – | – | – | 0 | 0
C=C1CC[C@H](O)C/C1=C/C=C1\CCC[C@]2(C)[C@@H]([C@H](C)CCCC(C)C)CC[C@@H]12 [Vitamin D3, vitamin D3, reference compound] | – | 0 | – | – | – | –
